Article PMC12434668 (Journal of Medicinal Chemistry, 2025)
In brackets after ≈: the same amount, converted by molar mass. Several values for one entry are separate records, joined by “and”; a condition that tells them apart may be missing. Equal entries are not always repeated. Where two headings read alike, the source gives them in different places.

Assays:
[1] = Mouse pharmacokinetic analyses (i.v. and oral); assay type: in vivo; conditions: plasma
Experimental: For PK analysis, mice were administered intravenously or orally with compound formulated in 10% ethanol and 10% Cremophor EL. Compound 13 dosing was also screened with 20% Phosphal IPG, 20% Phosphal MCT, 10% HP-β-CD, and 40% HP-β-CD. Plasma samples were obtained at predefined time points and compound concentrations in plasma were measured by quantitative HPLC–MS/MS using an internal standard. Calibration and quality control samples were prepared using blank plasma from untreated animals. Samples were precipitated with acetonitrile and injected into a HPLC system (Agilent 1200). Separation was performed by gradients of 5 mmol/L ammonium acetate pH 5.0 and acetonitrile with 0.1% formic acid on a Luna C8 reversed-phase column with 2.5 μm particles (Phenomenex). The HPLC was interfaced by ESI operated in positive ionization mode to a triple quadrupole mass spectrometer (6500+ Triple Quad System, SCIEX) operated in multiple reaction monitoring mode. Chromatograms were analyzed with Analyst (SCIEX) and pharmacokinetic parameters were calculated by noncompartmental analysis using proprietary software.

[2] = design: method as in earlier work; conditions: ref 66 (number lost in text); cited from earlier work
[3] = tested on: A427 cell line-derived NSCLC xenograft; test: Subcutaneous A427 NSCLC xenograft efficacy study; assay type: in vivo; conditions: for tumor regressions (day 28): animals regressing / group
Text: Female BomTac:NMRI-Foxn1nu mice and CB17/Icr-Prkdc(scid)/IcrCrl and were obtained from Taconic Denmark at an age of 6–8 weeks. After arrival of the local animal facility at Boehringer Ingelheim RCV GmbH & Co KG (institutional approval–Amt der Wiener Landesregierung, Magistratsabteilung 58, GZ: 135147/2013/4) mice were allowed to adjust to housing conditions at least for 5 days before the start of the experiment. Mice were group-housed under pathogen-free and controlled environmental conditions and handled according to the institutional, governmental and European Union guidelines (Austrian Animal Protection Laws, GV-SOLAS and FELASA guidelines). Animal studies were approved by the internal ethics committee and the local governmental committee (Amt der Wiener Landesregierung, Magistratsabteilung 58). To establish subcutaneous tumors mice were injected with 5 × 10^6 A427 cells in Matrigel (CB17/Icr-Prkdc(scid)/IcrCrl. Tumor diameters were measured with a caliper three times a week. The volume of each tumor [in mm^3] was calculated according to the formula “tumor volume = length*diameter^2*π/6.” To monitor side effects of treatment, mice were inspected daily for abnormalities and body weight was determined. Animals were sacrificed when the tumors reached a size of 1500 mm^3. Mice were dispatched randomly into treatment groups when the tumor size was 160 mm^3. Tumors were reported as regressing when the tumor volume at a given day was below the tumor volume at treatment start.

[4] = Kinetic aqueous solubility; assay type: physicochemical
[5] = tested on: caspase 3/7 in A427 cells; test: Caspase 3/7 induction assay (Caspase-Glo), A427; assay type: cell-based; conditions: compound treatment for 3 h; for EC50: Homo sapiens, A-427
Experimental: (§1) Cells were treated with a 10-point compound titration and incubated at 37 °C for 3 h.

[6] = tested on: caspase 3/7 in H929 cells; test: Caspase 3/7 induction assay (Caspase-Glo), H929; assay type: cell-based; conditions: compound treatment for 3 h; for EC50: Homo sapiens, NCI-H929
Experimental: as §1

[7] = tested on: caspase 3/7 in K562 cells; test: Caspase 3/7 induction assay (Caspase-Glo), K562; assay type: cell-based; conditions: compound treatment for 3 h; for EC50: Homo sapiens, K562
Experimental: as §1

A427 cells = test: In vitro proliferation assay (CellTiter-Glo), A427; assay type: cell-based; conditions: Homo sapiens, A-427
Experimental: (§2) NCI-H929, A427, and K562 cell lines were obtained from ATCC. NCI-H929 cells were cultured in RPMI1640 (ATCC-formulated, Catalog No. 30-2001) + 10% fetal calf serum (FCS, GIBCO BRL, Cat. No. 26140) + 0.05 mM mercaptoethanol. A-427 cells were cultured in RPMI1640 (ATCC-formulated, Catalog No. 30-2001) + 10% fetal calf serum (FCS, GIBCO BRL, Cat. No. 26140). K562 cell lines were cultured in Iscove’s Modified Dulbecco Medium (Gibco-formulated, purchased from Thermo-Fisher, Cat. No. 12440-053) + 10% fetal bovine serum (FBS, Sigma-Aldrich, F2442). All cell lines were cultured at 37 °C with 5% CO2 in a humidified incubator and have been regularly tested negatively for mycoplasm contamination.
(§3) Cells were seeded at 750–1500 cells per well (depending on growth kinetics) in 384-well plates (Corning, Catalog No. 3707) or at 3000 cells per well in 96-well plates in the respective growth medium and allowed to settle overnight. Suspension cells were plated immediately before compound addition. Adherent cell lines were incubated overnight at 37 °C in a tissue culture incubator prior to compound addition. Compounds were added in triplicates using an HP D300e Digital Dispenser (Hewlett-Packard) or manually at the concentrations indicated and total volumes were normalized using DMSO backfill, with final DMSO concentration of 0.5%. Control wells were treated with DMSO only. Following incubation for 72 or 96 h, a Cell Titer-Glo assay was conducted following the manufacturer recommendations (Promega, G9243) and luminescence was measured using a Victor X5 (PerkinElmer) or a Cytation 3 (Biotek) plate reader. % Viability was defined as relative luminescence units (RLU) of each well divided by the RLU of cells on day 0. Four parameter sigmoidal dose–response curves were generated and IC50 values were determined using XLFit (IDBS) software (eq 205) or in-house software. Drug combination experiments were performed in 96-well or 384-well format and drug synergy was determined using the BLISS model (PMID: 26171228).

NCI-H929 cells = test: In vitro proliferation assay (CellTiter-Glo), H929; assay type: cell-based; conditions: Homo sapiens
Experimental: as §2, §3

K562 cells = test: In vitro proliferation counterscreen, Mcl-1 insensitive K562; assay type: cell-based; conditions: for GI50: Homo sapiens, Mcl-1 insensitive K562, top concentration tested 12.5 µM
Experimental: NCI-H929, A427, and K562 cell lines were obtained from ATCC.
Suspension cells were plated immediately before compound addition. Adherent cell lines were incubated overnight at 37 °C in a tissue culture incubator prior to compound addition. Compounds were added in triplicates using an HP D300e Digital Dispenser (Hewlett-Packard) or manually at the concentrations indicated and total volumes were normalized using DMSO backfill, with final DMSO concentration of 0.5%. Control wells were treated with DMSO only. Following incubation for 72 or 96 h, a Cell Titer-Glo assay was conducted following the manufacturer recommendations (Promega, G9243) and luminescence was measured using a Victor X5 (PerkinElmer) or a Cytation 3 (Biotek) plate reader. % Viability was defined as relative luminescence units (RLU) of each well divided by the RLU of cells on day 0.

Mcl-1 = target: T1, Mcl-1 (Homo sapiens, UniProt Q07820); test: TR-FRET binding assay (FITC-Bak peptide competition)
T1 construct: Briefly, a previously reported construct was subcloned into an expression vector (pDEST-HisMBP); MBP (from vector pDEST-HisMBP); made in house; host or cells: Escherichia coli BL21 CodonPlus (DE3) RIL
Text: Protein preparation was described previously. Briefly, a previously reported construct was subcloned into an expression vector (pDEST-HisMBP) expressed in Escherichia coli BL21 CodonPlus (DE3) RIL (Stratagene) and purified through nickel-column and size-exclusion chromatography sequentially.
Mixtures containing vehicle without compound served as a negative control, while mixtures containing no protein served as a positive control. […] Two or more repeats were obtained and average K i values are reported.

Bcl-2 = test: Selectivity for Mcl-1 over Bcl-2; assay type: binding
Bcl-xL = test: Selectivity for Mcl-1 over Bcl-xL; assay type: binding
[8] = aqueous medium at pH 6.8, pH 6.8
[9] = iv, dosed at 20 mg/kg, read-out: i.v. mouse CL
[10] = iv, supplementary CSV, unit not given (Table 1: 20 mg/kg, 14 and 16 at 10 mg/kg), read-out: CL
[11] = supplementary CSV, unit inferred
[12] = in the presence of 1% fetal bovine serum, average of at least n = 2, read-out: TRFRET, Mcl-1 Ki
[13] = A427 cell line, average of at least n = 2, triplicate
[14] = H929 cell line, average of at least n = 2, triplicate

T1 sequence (Q07820 whole entry): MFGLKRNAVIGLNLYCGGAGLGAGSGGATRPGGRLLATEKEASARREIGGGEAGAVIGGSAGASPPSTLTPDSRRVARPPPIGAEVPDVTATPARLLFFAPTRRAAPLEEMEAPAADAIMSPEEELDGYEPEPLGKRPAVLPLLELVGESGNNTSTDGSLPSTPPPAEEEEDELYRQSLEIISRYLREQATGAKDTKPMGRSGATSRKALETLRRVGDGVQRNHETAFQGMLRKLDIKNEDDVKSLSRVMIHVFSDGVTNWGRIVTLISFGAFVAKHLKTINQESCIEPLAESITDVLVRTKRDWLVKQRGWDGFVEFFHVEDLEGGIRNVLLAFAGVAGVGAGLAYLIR

For COc1c(OCC2CCOCC2)cc(N2C[C@@H](C)n3c(c(CCCOc4cc(C)c(Cl)c(C)c4)c4ccc(Cl)c(-c5c(C)nc(C)nc5C)c43)C2=O)c2c1cc(C(=O)O)n2C [Compound 1], the AUC ([1]; iv, 40 mg/kg q14d i.v., xenograft study, read-out: AUC) is given as 198 µM·h, the “dog CL” value [2] is given as 5.2 mL/min/kg and the “tumor regressions (day 28)” value ([3]; 40 mg/kg q14d i.v.) is given as 0/8.

In the case of COc1cc2c3c(cc(C(=O)O)n3CCCOCc3nn(C)c(C)c3-c3c(Cl)ccc4c(CCCOc5cc(C)c(Cl)c(C)c5)c5n(c34)[C@H](C)CN2C5=O)c1OC [Compound 10, (2^63^4 S a ,1^72^2 R a ,2^4 R)-2^7-Chloro-2^10-(3-(4-chloro-3,5-dimethylphenoxy)propyl)-1^4,1^5-dimethoxy-2^4,3^1,3^5-trimethyl-2^1-oxo-2^1,2^2,2^3,2^4-tetrahydro-1^1 H,3^1 H-5-oxa-2(2,6)-pyrazino[1,2-a]indola-1(7,1)-indola-3(4,3)-pyrazolacyclooctaphane-1^2-carboxylic Acid], the solubility kinetic [4, 8] is reported as 2 µg/mL (≈ 2.45 µM), the EC50 [5] is reported as 11 nM and the “A427 Caspase 3/7 fold over vehicle (FoV)” value [5] is reported as 13 fold. The EC50 [6] was 9 nM, the “H929 Caspase 3/7 maximum activity, fold over vehicle (FoV)” value (“H929 Caspase 3/7 maximum activity, fold” below) [6] was 16 fold and the EC50 [7] was over 3120 nM. The “K562 Caspase 3/7 fold over vehicle (FoV)” value [7] was 1.4 fold, the clearance [1, 9] was 6.6 mL/min/kg and the clearance [1, 10] was 6.6 mL/min/kg. It also gave a GI50 (A427 cells; [11]) of 48 nM, a GI50 (NCI-H929 cells; [11]) of 20 nM and a GI50 (K562 cells) of over 9700 nM. The Ki (Mcl-1; [12]) was 0.08 ± 0.01 nM.

In the case of COc1cc2c3c(cc(C(=O)O)n3CCCOCc3nn(C)cc3-c3c(Cl)ccc4c(CCCOc5cc(C)c(Cl)c(C)c5)c5n(c34)[C@H](C)CN2C5=O)c1OC [Compound 13, (2^63^4 S a ,1^72^2 R a ,2^4 R)-2^7-Chloro-2^10-(3-(4-chloro-3,5-dimethylphenoxy)propyl)-1^4,1^5-dimethoxy-2^4,3^1-dimethyl-2^1-oxo-2^1,2^2,2^3,2^4-tetrahydro-1^1 H,3^1 H-5-oxa-2(2,6)-pyrazino[1,2-a]indola-1(7,1)-indola-3(4,3)-pyrazolacyclooctaphane-1^2-carboxylic Acid], the solubility kinetic [4, 8] is reported as 85 µg/mL (≈ 106 µM), the EC50 [5] is reported as 7.8 nM and the “A427 Caspase 3/7 fold over vehicle (FoV)” value [5] is reported as 16 fold. For the same compound, the EC50 [6] was 13 nM, the “H929 Caspase 3/7 maximum activity, fold” value [6] was 16 fold and the EC50 [7] was over 3120 nM. For the same compound, the “K562 Caspase 3/7 fold over vehicle (FoV)” value [7] was 1.3 fold, the “selectivity for Mcl-1 over Bcl-2” value (Bcl-2) was > 50,000 fold and the AUC ([1]; iv, 20 mg/kg, read-out: AUCIV) was 60.9 µM·h. The AUC ([1]; iv, 30 mg/kg q14d i.v., xenograft study, read-out: AUC) was 144 µM·h, the AUC ([1]; iv, 60 mg/kg q14d i.v., xenograft study, read-out: AUC) was 481 µM·h and the clearance [1, 9] was 7.4 mL/min/kg. For the same compound, the clearance [1, 10] was 7.4 mL/min/kg, the AUC ([1]; oral, 20 mg/kg, read-out: AUCPO) was 0.625 µM·h and the bioavailability ([1]; po, read-out: oral bioavailability (F)) was 1%. For the same compound, the GI50 (A427 cells; [13]) was 25 ± 9 nM, the “selectivity for Mcl-1 over Bcl-xL” value (Bcl-xL) was > 50,000 fold and the GI50 (NCI-H929 cells; [14]) was 14 ± 4 nM. For the same compound, the “tolerability, body weight” value ([3]; 60 mg/kg q14d i.v.) was “body weight behaved similarly to the vehicle control cohort”, the “tumor regressions (day 28)” value ([3]; 60 mg/kg q14d i.v.) was 7/8 and the “tumor outgrowth, study day” value ([3]; sc, 60 mg/kg, 480 h) was about 50 study day. For the same compound, the “selectivity for Mcl-1-sensitive cell lines over the K562 control” value (K562 cells; GI50 ratio) was over 900 fold, the GI50 (K562 cells) was over 12500 nM and the Ki (Mcl-1; [12]) was under 0.08 nM.

With COc1cc2c3c(cc(C(=O)O)n3CCCOCc3nn(C)cc3-c3c(Cl)ccc4c(CCCOc5cc(C)c(Cl)c(C)c5)c5n(c34)[C@H](C)CN2C5=O)c1C [Compound 17, (2^63^4 S a ,1^72^2 R a ,2^4 R)-2^7-Chloro-2^10-(3-(4-chloro-3,5-dimethylphenoxy)propyl)-1^5-methoxy-1^4,2^4,3^1-trimethyl-2^1-oxo-2^1,2^2,2^3,2^4-tetrahydro-1^1 H,3^1 H-5-oxa-2(2,6)-pyrazino[1,2-a]indola-1(7,1)-indola-3(4,3)-pyrazolacyclooctaphane-1^2-carboxylic Acid] the solubility kinetic ([4]; aqueous medium, pH 6.8, pH 6.8) was 39 µg/mL (≈ 49.7 µM), the EC50 [5] was 12 nM and the “A427 Caspase 3/7 fold over vehicle (FoV)” value [5] was 16 fold. The EC50 [6] was 16 nM, the “H929 Caspase 3/7 maximum activity, fold” value [6] was 16 fold and 16 (16) fold and the EC50 [7] was over 3120 nM. For the same compound, the “K562 Caspase 3/7 fold over vehicle (FoV)” value [7] was 1.3 fold, the clearance [1, 9] was 5.7 mL/min/kg and the clearance [1, 10] was 5.7 mL/min/kg. The GI50 (A427 cells; [13]) was 32 ± 7 nM, the GI50 (NCI-H929 cells; [14]) was 23 ± 5 nM and the GI50 (K562 cells) was over 12500 nM. It also gave a Ki (Mcl-1; [12]) of under 0.08 nM and a Ki (Mcl-1; supplementary CSV, unit inferred, read-out: Ki TRFRET) of under 0.02 nM.
